Data taken from PMC3683333, “^11C-LY2428703, a positron emission tomographic radioligand for the metabotropic glutamate receptor 1, is unsuitable for imaging in monkey and human brains” (EJNMMI Research, 2013).
Marks after values point to notes of the source that are not given here.

Legend:
mGluR1 [1] = target: T1, mGluR1 (Rattus norvegicus, UniProt P23385); test: Saturation binding assay with [^3H]LY456066, rat cerebellar membranes; set-up: species or system Sprague–Dawley rats; details: rats; fp from ref 10
T1 construct: P2 membrane fractions were prepared from the cerebella of male Sprague–Dawley rats; from tissue; host or cells: rat cerebellum, P2 membrane fraction
Protocol: P2 membrane fractions were prepared from the cerebella of male Sprague–Dawley rats (n = 3), male rhesus monkeys (n = 3), and female humans (n = 4). […] Nonspecific binding was defined by heterologous displacement of 1 μM LY480084 (mGlu1 antagonist) in select wells. Plates were incubated on ice for 75 min and membranes harvested on 0.3% polyethylenimine pretreated Wallac filter mats using a Tomtec Harvester MachII (Tomtec, Hamden, CT, USA). Dissociation constant (KD) and receptor density (Bmax) values were obtained in GraphPad Prism using standard nonlinear one-site binding equations. Data are presented as mean ± SEM (n = 3 to 4); one-way analysis of variance followed by Tukey's post hoc test.

[2] = Arterial plasma analysis after injection, monkey; assay type: in vivo, rhesus monkeys; details: after intravenous injection
Protocol: Plasma analyses were performed on a reverse-phase chromatography C18 column (Novapak, 4 μm, 100 × 8 mm, Waters Corp. Milford, MA, USA) using Radial-Pak® compression module RCM-100 with a sentry pre-column. Human plasma analyses were performed with a mobile phase of […], at a flow rate of 2.5 mL/min; nonhuman primate plasma samples were analyzed with a mobile phase of MeOH/H2O/Et3N, 72.5:27.5:0.1 by volume, at a flow rate of 1.5 mL/min. To compare the outcome from both systems, elution volume is reported rather than retention time.
Arterial plasma was analyzed as previously described. Briefly, after ^11C-LY2428703 injection into either human or nonhuman primate, the input function was determined by periodically drawing anticoagulated blood samples. […] The samples were counted in the γ-counter and centrifuged at 10,000×g for 1 min. […] The precipitates were then counted for radioactivity to allow the calculation of the efficiency of recovery of radioactivity in the acetonitrile. […]
PET images were acquired using either the high-resolution research tomograph (HRRT) or the FOCUS 220 scanner (Siemens/CPS, Knoxville, TN, USA) for 120 min in 33 frames, with frame durations ranging from 30 s to 5 min, and correcting for attenuation and scatter. […] Electrocardiograph, body temperature, heart rate, and respiration rate were measured throughout the experiment. […]

[3] = set-up: method as in PMID 23135321; details: rats; cited from earlier work
[4] = room temperature, octanol; cited from earlier work
mGluR1 [5] = target: mGluR1 (Homo sapiens, UniProt Q13255); test: Brain PET at baseline, human; assay type: in vivo; set-up: from tissue; host or cells: brain of living healthy human volunteers (in vivo PET); details: for VT: mean ± SD
Description: Three healthy females participated in the study (29 ± 2-year old, 69 ± 13 kg). All were free from current medical and psychiatric illnesses, as assessed by medical history, physical examination, electrocardiogram, urinalysis including drug screening, and blood tests (complete blood count, serum chemistries, thyroid function test, and antibody screening for syphilis, HIV, and hepatitis B). The National Institutes of Health Central Nervous System Institutional Review Board approved the protocols and the consent forms. Written informed consent was obtained from all subjects.
PET images were acquired using the GE Advance scanner (GE Healthcare, Milwaukee, WI, USA) for 120 min. An 8-min ^68Ge transmission scan was obtained before the injection of the radiotracer for attenuation correction. The mean injected activity was 328 ± 12 MBq. The specific activity at the time of injection was 87.2 ± 34.7 GBq/μmol, which corresponded to 5.5 ± 2.3 nmol (0.082 ± 0.037 nmol/kg) of carrier. Blood samples (1 mL each) were drawn from the radial artery at 15-s intervals until 150 s, followed by 3-mL samples at 3, 4, 6, 8, 10, 15, 20, 30, 40, and 50 min, and 4.5 mL at 60, 75, 90, and 120 min. The unchanged parent fraction in plasma and fP of ^11C-LY2428703 were determined as described above.
To identify brain regions, magnetic resonance (MR) images were obtained using a 3-T GE Signa device (GE Healthcare, Milwaukee, WI, USA). T1-weighted structural images were acquired with a voxel size of 0.86 mm × 0.86 mm × 1.2 mm. The image acquisition sequences were the time of repetition (7.3 ms), echo time length (2.8 ms), and flip angle (6°).
The average PET image created from all frames was first coregistered to the individual MR image. Then, both MR and all PET images were spatially normalized to a standard anatomic orientation (Montreal Neurological Institute (MNI) space) based on transformation parameters from the MR images. A volume-of-interest template as implemented in PMOD (PMOD Technologies Ltd, Zurich, Switzerland) was used to obtain brain time-activity curves.
Volumes of distribution (VT) were obtained by nonlinear compartmental analysis. Goodness-of-fit by nonlinear least squares analysis was evaluated using the Akaike Information Criterion (AIC) and Model Selection Criterion (MSC). The most appropriate model is that with the smallest AIC and the largest MSC score. Goodness-of-fit by the compartment models was compared with F statistics. A value of P < 0.05 was considered significant for F statistics. The identifiability of kinetic variables was calculated as standard error obtained from the diagonal of the covariance matrix and expressed as a percentage of the rate constant.

Sequence of mGluR1 (Homo sapiens, UniProt Q13255) (Q13255 19-1194): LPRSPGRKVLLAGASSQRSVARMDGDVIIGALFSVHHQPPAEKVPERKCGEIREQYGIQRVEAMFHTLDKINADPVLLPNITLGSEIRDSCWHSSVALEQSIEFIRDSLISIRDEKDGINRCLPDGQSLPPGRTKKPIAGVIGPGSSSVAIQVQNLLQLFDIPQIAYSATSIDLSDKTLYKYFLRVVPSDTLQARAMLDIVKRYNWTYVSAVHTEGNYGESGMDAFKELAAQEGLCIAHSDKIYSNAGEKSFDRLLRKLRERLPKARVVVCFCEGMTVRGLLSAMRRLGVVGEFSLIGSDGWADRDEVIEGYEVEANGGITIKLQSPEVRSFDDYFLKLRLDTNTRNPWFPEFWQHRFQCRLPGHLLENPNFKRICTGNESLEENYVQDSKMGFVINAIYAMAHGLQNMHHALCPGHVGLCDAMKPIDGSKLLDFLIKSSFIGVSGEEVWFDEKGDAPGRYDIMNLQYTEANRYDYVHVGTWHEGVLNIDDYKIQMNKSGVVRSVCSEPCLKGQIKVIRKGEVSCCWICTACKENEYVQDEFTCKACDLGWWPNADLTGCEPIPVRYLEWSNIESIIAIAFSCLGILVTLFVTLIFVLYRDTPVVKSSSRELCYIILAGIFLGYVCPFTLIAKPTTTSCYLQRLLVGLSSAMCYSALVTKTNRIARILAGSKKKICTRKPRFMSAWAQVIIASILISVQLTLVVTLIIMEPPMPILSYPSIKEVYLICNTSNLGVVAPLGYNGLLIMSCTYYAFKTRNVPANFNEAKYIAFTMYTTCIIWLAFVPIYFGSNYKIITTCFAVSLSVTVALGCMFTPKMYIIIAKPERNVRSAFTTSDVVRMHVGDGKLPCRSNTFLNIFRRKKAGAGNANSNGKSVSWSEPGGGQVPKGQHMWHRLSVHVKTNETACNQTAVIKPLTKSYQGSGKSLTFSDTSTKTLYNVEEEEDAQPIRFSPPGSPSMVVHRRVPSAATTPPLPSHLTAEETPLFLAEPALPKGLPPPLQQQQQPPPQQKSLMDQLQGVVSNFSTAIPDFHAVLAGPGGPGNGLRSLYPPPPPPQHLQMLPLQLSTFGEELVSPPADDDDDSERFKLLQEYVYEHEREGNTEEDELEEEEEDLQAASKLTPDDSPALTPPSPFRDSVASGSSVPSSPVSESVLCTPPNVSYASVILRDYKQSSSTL
T1 sequence (P23385 19-1199): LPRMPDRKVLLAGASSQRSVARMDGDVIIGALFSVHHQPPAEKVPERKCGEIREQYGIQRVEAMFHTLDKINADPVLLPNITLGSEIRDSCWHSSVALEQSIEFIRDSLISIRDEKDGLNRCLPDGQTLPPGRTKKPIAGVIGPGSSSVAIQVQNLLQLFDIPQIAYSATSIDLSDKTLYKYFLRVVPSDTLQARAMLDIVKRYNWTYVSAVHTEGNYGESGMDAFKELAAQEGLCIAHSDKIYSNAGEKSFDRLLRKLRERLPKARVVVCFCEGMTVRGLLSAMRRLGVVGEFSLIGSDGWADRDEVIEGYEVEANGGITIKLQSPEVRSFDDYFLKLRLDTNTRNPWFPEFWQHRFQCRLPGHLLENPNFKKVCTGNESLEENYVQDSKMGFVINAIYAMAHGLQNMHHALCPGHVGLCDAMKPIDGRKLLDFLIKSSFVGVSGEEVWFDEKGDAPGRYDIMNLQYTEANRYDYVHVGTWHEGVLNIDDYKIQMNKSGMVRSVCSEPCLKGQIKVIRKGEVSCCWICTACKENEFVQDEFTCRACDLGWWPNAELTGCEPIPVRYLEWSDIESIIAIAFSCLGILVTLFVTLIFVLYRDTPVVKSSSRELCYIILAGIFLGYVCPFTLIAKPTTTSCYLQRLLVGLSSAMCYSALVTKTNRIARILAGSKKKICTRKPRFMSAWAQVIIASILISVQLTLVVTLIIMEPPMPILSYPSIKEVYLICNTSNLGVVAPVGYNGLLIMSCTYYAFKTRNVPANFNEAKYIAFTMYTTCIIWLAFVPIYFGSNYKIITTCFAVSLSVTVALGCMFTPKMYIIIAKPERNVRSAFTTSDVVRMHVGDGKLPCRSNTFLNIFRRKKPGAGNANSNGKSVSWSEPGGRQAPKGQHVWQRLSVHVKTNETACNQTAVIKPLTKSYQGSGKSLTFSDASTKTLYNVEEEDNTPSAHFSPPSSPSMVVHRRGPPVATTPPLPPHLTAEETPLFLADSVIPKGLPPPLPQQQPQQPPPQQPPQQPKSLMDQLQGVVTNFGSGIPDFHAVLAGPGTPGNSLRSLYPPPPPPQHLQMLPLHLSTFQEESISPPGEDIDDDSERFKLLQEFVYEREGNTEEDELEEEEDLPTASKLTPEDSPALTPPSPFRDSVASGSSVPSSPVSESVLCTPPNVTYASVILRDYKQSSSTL

In the case of Cc1c(-c2ccc(O[11CH3])cc2)nsc1NC(=O)[C@@H]1C[C@H]1C [^11C-LY2428703], the “fp × Bmax/KD (=VS), effective BP” value (mGluR1 [1]) is listed as 0.683, the “time of peak plasma concentration” value [2] is listed as 1 to 1.5 min and the “fp (plasma free fraction)” value [3] is listed as 2.7^a %. The LogD [4] was 4.02, the VT values (mGluR1 [5]; 2TCM, all brain regions) was < 0.1 mL/cm^3 and the “time of brain peak uptake” value (mGluR1 [5]; after injection) was 1.3 ± 0 min. For the same compound, the “time at which brain activity decreased to 50% of the peak” value (mGluR1 [5]; average) was 20 min, the VT (mGluR1 [5]; caudate, two-tissue compartment model) was 0.086 ± 0.024 (22.6%) mL · cm^−3 and the VT (mGluR1 [5]; cerebellum, two-tissue compartment model) was 0.090 ± 0.010 (2.8%) mL · cm^−3. For the same compound, the VT (mGluR1 [5]; frontal cortex, two-tissue compartment model) was 0.092 ± 0.016 (14.2%) mL · cm^−3, the VT (mGluR1 [5]; parietal cortex, two-tissue compartment model) was 0.087 ± 0.011 (4.9%) mL · cm^−3 and the VT (mGluR1 [5]; temporal cortex, two-tissue compartment model) was 0.102 ± 0.010 (4.4%) mL · cm^−3. For the same compound, the “mean VT” value (mGluR1 [5]; two-tissue compartment model) was 0.093 ± 0.012 mL/cm^3 and the brain peak uptake (mGluR1 [5]; without vascular correction) was 1.14 ± 0.18 SUV.
